In ChEMBL document CHEMBL1201862, “PubChem BioAssay data set” (2004):
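The compound was tested at five concentrations on cells cultured in 96-well plates, with a 48-hour exposure period. Abbreviation: GI50, concentration required for 50% inhibition of growth.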 Activity calls are given as the source filed them. No stated cut-off is given here; in the data, active = GI50 up to about 1.1 µM and inactive = higher.

Key:
Assay in all cases: inhibition of tumour cell growth, NCI panel, 48 h
MDA-N = test system: MDA-N
CAKI-1 = test system: CAKI-1
KM12 = test system: KM12
SF-295 = test system: SF-295
SNB-75 = test system: SNB-75
EKVX = test system: EKVX
MOLT-4 = test system: MOLT-4
U-251 = test system: U-251
HT-29 = test system: HT-29
SW-620 = test system: SW-620
HCT-116 = test system: HCT-116
OVCAR-3 = test system: OVCAR-3
SK-OV-3 = test system: SK-OV-3
SR = test system: SR
LOX IMVI = test system: LOX IMVI
T47D = test system: T47D
RPMI-8226 = test system: RPMI-8226
HL-60 = test system: HL-60
MDA-MB-231 = test system: MDA-MB-231
PC-3 = test system: PC-3
M14 = test system: M14
NCI-H460 = test system: NCI-H460
786-0 = test system: 786-0
NCI-H522 = test system: NCI-H522
OVCAR-8 = test system: OVCAR-8
Malme-3M = test system: Malme-3M
HCC 2998 = test system: HCC 2998
BT-549 = test system: BT-549
HCT-15 = test system: HCT-15
SNB-19 = test system: SNB-19
UO-31 = test system: UO-31
UACC-257 = test system: UACC-257
SK-MEL-2 = test system: SK-MEL-2
SF-268 = test system: SF-268
K562 = test system: K562
ACHN = test system: ACHN
SF-539 = test system: SF-539
SK-MEL-28 = test system: SK-MEL-28
NCI-H23 = test system: NCI-H23
COLO 205 = test system: COLO 205
OVCAR-4 = test system: OVCAR-4
A549 = test system: A549
A498 = test system: A498
UACC-62 = test system: UACC-62
CCRF-CEM = test system: CCRF-CEM
MDA-MB-435 = test system: MDA-MB-435
Hs-578T = test system: Hs-578T
HOP-62 = test system: HOP-62
MCF7 = test system: MCF7
NCI/ADR-RES = test system: NCI/ADR-RES
IGROV-1 = test system: IGROV-1
HOP-92 = test system: HOP-92
RXF 393 = test system: RXF 393
NCI-H226 = test system: NCI-H226
OVCAR-5 = test system: OVCAR-5
SK-MEL-5 = test system: SK-MEL-5
TK-10 = test system: TK-10
DU-145 = test system: DU-145
SN12C = test system: SN12C

Measured: GI50

C(/C=N/N=C1NCCN1)=N\N=C1NCCN1
> 100 µM: HCT-15
inactive: MDA-N > 100 µM | CAKI-1 > 100 µM | KM12 > 100 µM | SF-295 > 100 µM | SNB-75 47.3 µM | EKVX > 100 µM | MOLT-4 > 100 µM | U-251 > 100 µM | HT-29 > 100 µM | SW-620 > 100 µM | HCT-116 > 100 µM | OVCAR-3 > 100 µM | SK-OV-3 > 100 µM | SR > 100 µM | LOX IMVI > 100 µM | T47D > 100 µM | RPMI-8226 > 100 µM | HL-60 12.5 µM | MDA-MB-231 > 100 µM | PC-3 > 100 µM | M14 > 100 µM | NCI-H460 > 100 µM | 786-0 > 100 µM | NCI-H522 72.3 µM | OVCAR-8 > 100 µM | Malme-3M > 100 µM | HCC 2998 > 100 µM | BT-549 > 100 µM | SNB-19 > 100 µM | UO-31 > 100 µM | UACC-257 > 100 µM | SK-MEL-2 > 100 µM | SF-268 > 100 µM | K562 17.8 µM | ACHN > 100 µM | SF-539 > 100 µM | SK-MEL-28 > 100 µM | NCI-H23 > 100 µM | COLO 205 > 100 µM | OVCAR-4 > 100 µM | A549 > 100 µM | A498 > 100 µM | UACC-62 > 100 µM | CCRF-CEM > 100 µM | MDA-MB-435 > 100 µM | Hs-578T > 100 µM | HOP-62 > 100 µM | MCF7 > 100 µM | NCI/ADR-RES > 100 µM | IGROV-1 > 100 µM | HOP-92 > 100 µM | RXF 393 > 100 µM | NCI-H226 > 100 µM | OVCAR-5 > 100 µM | SK-MEL-5 > 100 µM

N#CC(Cc1ccccc1Br)N(CCC1=CCCCC1)C(c1ccccc1)c1ccccc1 (stereo unspecified)
inactive: MDA-N 41.4 µM | CAKI-1 > 100 µM | KM12 64.9 µM | SF-295 58.7 µM | SNB-75 > 100 µM | EKVX 51.4 µM | MOLT-4 72.3 µM | U-251 83.8 µM | HT-29 32.9 µM | SW-620 73.8 µM | HCT-116 32.8 µM | OVCAR-3 75.5 µM | SK-OV-3 > 100 µM | T47D 38.3 µM | RPMI-8226 31.7 µM | MDA-MB-231 > 100 µM | PC-3 > 100 µM | M14 37.9 µM | NCI-H460 57.3 µM | 786-0 > 100 µM | NCI-H522 25.9 µM | OVCAR-8 76 µM | Malme-3M > 100 µM | HCC 2998 18.6 µM | BT-549 > 100 µM | SNB-19 > 100 µM | UO-31 83.2 µM | UACC-257 61.8 µM | SK-MEL-2 > 100 µM | SF-268 > 100 µM | K562 44.3 µM | ACHN > 100 µM | TK-10 > 100 µM | DU-145 > 100 µM | SK-MEL-28 > 100 µM | NCI-H23 27.8 µM | COLO 205 50.8 µM | OVCAR-4 94 µM | A549 93.3 µM | A498 > 100 µM | UACC-62 97.1 µM | MDA-MB-435 30.4 µM | Hs-578T > 100 µM | HOP-62 > 100 µM | MCF7 52.4 µM | NCI/ADR-RES > 100 µM | IGROV-1 52.1 µM | HOP-92 29.7 µM | RXF 393 71.6 µM | OVCAR-5 > 100 µM | SK-MEL-5 46 µM
50.2 µM: HCT-15

COC(=O)c1cn(CC(O)CCl)nn1 (stereo unspecified)
> 100 µM: HCT-15
inactive: MDA-N > 100 µM | CAKI-1 > 100 µM | KM12 > 100 µM | SNB-75 > 100 µM | EKVX > 100 µM | MOLT-4 > 100 µM | U-251 > 100 µM | HT-29 > 100 µM | SW-620 > 100 µM | OVCAR-3 > 100 µM | LOX IMVI > 100 µM | T47D > 100 µM | RPMI-8226 > 100 µM | HL-60 > 10 µM | MDA-MB-231 > 100 µM | PC-3 > 100 µM | M14 > 100 µM | NCI-H460 > 100 µM | NCI-H522 > 100 µM | OVCAR-8 > 100 µM | Malme-3M > 100 µM | HCC 2998 > 100 µM | BT-549 > 100 µM | SNB-19 > 100 µM | UO-31 > 100 µM | UACC-257 > 100 µM | SK-MEL-2 > 100 µM | SN12C > 100 µM | SF-268 > 100 µM | K562 > 100 µM | ACHN > 100 µM | TK-10 > 100 µM | DU-145 > 100 µM | SF-539 > 100 µM | SK-MEL-28 > 100 µM | NCI-H23 > 100 µM | COLO 205 > 100 µM | OVCAR-4 > 100 µM | A549 > 100 µM | A498 > 100 µM | CCRF-CEM > 100 µM | MDA-MB-435 > 100 µM | Hs-578T > 100 µM | HOP-62 > 100 µM | MCF7 > 100 µM | NCI/ADR-RES > 100 µM | IGROV-1 > 100 µM | HOP-92 > 100 µM | RXF 393 > 100 µM | OVCAR-5 > 100 µM | SK-MEL-5 > 100 µM

O=S(=O)(N1CCCCN(S(=O)(=O)C(F)(F)F)CCCN(S(=O)(=O)C(F)(F)F)CCCN(S(=O)(=O)C(F)(F)F)CCCCN(S(=O)(=O)C(F)(F)F)CCCN(S(=O)(=O)C(F)(F)F)CCC1)C(F)(F)F
inactive: MDA-N > 100 µM | CAKI-1 37.2 µM | KM12 > 100 µM | SF-295 22.9 µM | SNB-75 37.9 µM | EKVX 72.3 µM | MOLT-4 > 100 µM | U-251 21.6 µM | HT-29 > 100 µM | SW-620 > 100 µM | HCT-116 87.1 µM | OVCAR-3 38.4 µM | SK-OV-3 > 100 µM | LOX IMVI 80.5 µM | T47D 77.4 µM | HL-60 > 100 µM | MDA-MB-231 > 100 µM | PC-3 > 100 µM | M14 63.7 µM | NCI-H460 30.9 µM | 786-0 18.2 µM | NCI-H522 35.2 µM | OVCAR-8 36.4 µM | Malme-3M 23.2 µM | HCC 2998 > 100 µM | BT-549 23.7 µM | SNB-19 35.2 µM | UO-31 > 100 µM | UACC-257 49.3 µM | SK-MEL-2 76.4 µM | SN12C 35.8 µM | SF-268 31.1 µM | K562 > 100 µM | ACHN > 100 µM | TK-10 99.5 µM | DU-145 > 100 µM | SF-539 28.9 µM | SK-MEL-28 > 100 µM | NCI-H23 56.5 µM | COLO 205 > 100 µM | OVCAR-4 > 100 µM | A549 > 100 µM | A498 52.6 µM | UACC-62 64.6 µM | CCRF-CEM > 100 µM | MDA-MB-435 53.7 µM | Hs-578T 30.3 µM | HOP-62 29.7 µM | MCF7 > 100 µM | NCI/ADR-RES 53.2 µM | IGROV-1 35.6 µM | HOP-92 31 µM | RXF 393 28.6 µM | NCI-H226 81.8 µM | OVCAR-5 > 100 µM | SK-MEL-5 35 µM
68.4 µM: HCT-15

Cc1cc(Cc2c(F)c(F)c(Cc3cc(C)no3)c(F)c2F)on1
inactive: MDA-N > 100 µM | CAKI-1 12.2 µM | SF-295 39.9 µM | SNB-75 29 µM | EKVX > 100 µM | MOLT-4 > 100 µM | U-251 64.1 µM | HT-29 > 100 µM | HCT-116 > 100 µM | OVCAR-3 > 100 µM | SK-OV-3 38.5 µM | LOX IMVI 80.4 µM | T47D > 100 µM | RPMI-8226 > 100 µM | HL-60 > 100 µM | MDA-MB-231 46.6 µM | PC-3 > 100 µM | M14 > 100 µM | 786-0 38.8 µM | NCI-H522 > 100 µM | OVCAR-8 83.9 µM | Malme-3M > 100 µM | BT-549 > 100 µM | SNB-19 36.7 µM | UO-31 > 100 µM | UACC-257 > 100 µM | SK-MEL-2 32.7 µM | SN12C > 100 µM | SF-268 21.7 µM | K562 > 100 µM | ACHN > 100 µM | TK-10 54.2 µM | DU-145 > 100 µM | SF-539 47.6 µM | SK-MEL-28 > 100 µM | NCI-H23 65.8 µM | COLO 205 > 100 µM | OVCAR-4 > 100 µM | A549 12.9 µM | A498 > 100 µM | UACC-62 > 100 µM | CCRF-CEM > 100 µM | MDA-MB-435 > 100 µM | Hs-578T 29.9 µM | HOP-62 25.4 µM | MCF7 > 100 µM | NCI/ADR-RES > 100 µM | IGROV-1 > 100 µM | HOP-92 29 µM | RXF 393 33 µM | NCI-H226 > 100 µM | OVCAR-5 > 100 µM | SK-MEL-5 28.4 µM
> 100 µM: HCT-15
